Drawing on patent US6858638B2, “Substituted indazoles, compositions containing them, method of production and use” (Aventis Pharma S.A., priority 2002, dated 2005), this text covers inhibition for nine molecules.

Assay type in all cases: biochemical
Experiment [1] deals with T1, human IGF1R cytoplasmic domain (Homo sapiens, UniProt P08069).
T1 construct: The human IGF1R cytoplasmic domain was cloned; made in house; host or cells: SF21 insect cells (baculovirus)
Put plainly: IGF1R autophosphorylation inhibition, time resolved fluorescence (HTRF) assay. Particulars: 10 μM; read-out: IGF1R % inhib at 10 μM. The essentials: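 GST-tagged human IGF1R cytoplasmic domain from SF21 cells incubated with compound in 50 mM Hepes pH 7.5, 5 mM MnCl2, 50 mM NaCl, […] ATP. Autophosphorylation detected by HTRF (Eu-K anti-phosphotyrosine, XL665 anti-GST) after EDTA/KF stop; percentage inhibition versus no-compound control.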
In general terms: In TR-FRET formats the signal depends on donor and acceptor labels being close together.

The target in a further experiment is T2, human FAK (Homo sapiens, UniProt Q05397).
T2 construct: The complete cDNA of human FAK; made in house; host or cells: baculovirus expression system (vector pFastBac HTc)
Put plainly: FAK autophosphorylation inhibition, time resolved fluorescence (HTRF) assay. The note with it: 10 μM (values without asterisk); read-out: FAK % inhib at 10 μM. The essentials: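 Autophosphorylation was detected by europium-cryptate anti-pTyr and XL665 anti-His energy transfer, percent inhibition from the 665/620 ratio relative to no-compound wells. Enzyme: His-FAK full length, 6.6 µg/ml, incubated 1 h at 37 °C, pH 7.2, 15 µM ATP.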

Another experiment deals with T3, Aurora2 kinase (Homo sapiens, UniProt O14965).
T3 construct: A complete recombinant Aurora2 enzyme; His tag (N); made in house; host or cells: E. coli
T3 sequence (O14965 1-403): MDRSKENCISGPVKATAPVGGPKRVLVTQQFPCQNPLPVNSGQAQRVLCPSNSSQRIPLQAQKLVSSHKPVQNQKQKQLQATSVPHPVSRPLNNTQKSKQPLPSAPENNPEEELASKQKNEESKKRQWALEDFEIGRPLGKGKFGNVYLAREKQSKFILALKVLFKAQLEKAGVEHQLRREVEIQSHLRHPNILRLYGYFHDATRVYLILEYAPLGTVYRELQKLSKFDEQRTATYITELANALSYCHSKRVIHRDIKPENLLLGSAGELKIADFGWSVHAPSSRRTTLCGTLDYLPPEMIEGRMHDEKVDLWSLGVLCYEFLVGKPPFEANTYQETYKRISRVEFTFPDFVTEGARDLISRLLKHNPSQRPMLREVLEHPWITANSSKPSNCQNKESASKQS
The experiment is described as follows: Aurora2 kinase radioactivity scintillation assay using nickel chelate (NuMA substrate). The note with it: 10 μM; read-out: Aurora2 % inhib at 10 μM. The essentials: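 Read-out is 33P incorporation into His-NuMA (Q1687-H2101, 0.5 μM) captured on nickel chelate, after 30 min at 37 °C with 0.02 μM His-Aurora2 and 1 μM ATP. Expressed as percentage inhibition of uncompounded control activity, background subtracted.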

T2 sequence (Q05397 whole entry): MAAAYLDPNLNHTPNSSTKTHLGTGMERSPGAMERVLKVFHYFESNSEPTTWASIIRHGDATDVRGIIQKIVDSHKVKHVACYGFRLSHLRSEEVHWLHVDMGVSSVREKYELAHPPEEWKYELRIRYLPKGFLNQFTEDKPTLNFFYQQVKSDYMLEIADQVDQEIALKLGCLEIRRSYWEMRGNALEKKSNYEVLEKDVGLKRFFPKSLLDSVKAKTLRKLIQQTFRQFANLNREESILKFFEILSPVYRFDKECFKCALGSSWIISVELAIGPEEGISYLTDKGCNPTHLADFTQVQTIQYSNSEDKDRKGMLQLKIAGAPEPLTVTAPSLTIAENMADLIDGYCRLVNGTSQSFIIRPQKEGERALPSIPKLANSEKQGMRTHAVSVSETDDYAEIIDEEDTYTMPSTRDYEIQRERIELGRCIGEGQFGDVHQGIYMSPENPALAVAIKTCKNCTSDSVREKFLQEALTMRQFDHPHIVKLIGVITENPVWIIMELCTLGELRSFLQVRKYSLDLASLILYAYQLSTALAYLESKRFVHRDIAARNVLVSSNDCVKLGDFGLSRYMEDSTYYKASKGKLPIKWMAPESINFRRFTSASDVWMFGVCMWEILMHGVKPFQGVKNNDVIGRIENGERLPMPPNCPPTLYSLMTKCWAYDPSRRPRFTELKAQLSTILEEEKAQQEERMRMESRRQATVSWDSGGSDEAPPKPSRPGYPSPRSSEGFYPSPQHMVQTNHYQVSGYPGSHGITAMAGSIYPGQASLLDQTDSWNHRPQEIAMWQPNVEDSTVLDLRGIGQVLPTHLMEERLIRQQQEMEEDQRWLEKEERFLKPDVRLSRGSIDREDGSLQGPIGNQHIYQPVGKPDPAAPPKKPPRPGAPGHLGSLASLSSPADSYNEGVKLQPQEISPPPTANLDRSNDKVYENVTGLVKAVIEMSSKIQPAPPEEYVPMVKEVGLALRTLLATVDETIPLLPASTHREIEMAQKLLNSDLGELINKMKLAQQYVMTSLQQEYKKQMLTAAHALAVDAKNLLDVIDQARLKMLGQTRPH
T1 sequence (P08069 960-1367 limits assumed): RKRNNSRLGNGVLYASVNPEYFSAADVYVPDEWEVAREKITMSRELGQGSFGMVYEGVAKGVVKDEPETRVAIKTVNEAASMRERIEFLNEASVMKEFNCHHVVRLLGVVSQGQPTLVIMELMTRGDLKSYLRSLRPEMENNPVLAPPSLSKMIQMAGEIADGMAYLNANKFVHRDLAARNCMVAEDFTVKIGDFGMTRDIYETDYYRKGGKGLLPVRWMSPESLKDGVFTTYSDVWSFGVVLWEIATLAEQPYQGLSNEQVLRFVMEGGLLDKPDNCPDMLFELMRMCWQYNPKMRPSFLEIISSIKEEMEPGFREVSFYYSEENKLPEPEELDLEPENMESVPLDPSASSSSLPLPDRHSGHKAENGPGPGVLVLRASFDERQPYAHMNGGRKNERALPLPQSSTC

`Cc1ccccc1S(=O)(=O)Nc1ccc2[nH]nc(-c3ccccc3)c2c1` [Example 132, 2-Methyl-N-(3-phenyl-1H-indazol-5-yl)-benzenesulfonamide]: the inhibition at 10 µM in experiment [1] is 77%; on human FAK, 51%; on Aurora2 kinase, 100%.
For `O=C(O)c1cccc(S(=O)(=O)Nc2ccc3[nH]nc(-c4ccccc4)c3c2)c1` [Example 133, 3-(3-Phenyl-1H-indazol-5-ylsulfamoyl)benzoic acid] the same measures were 40%, 12% and 67%.
For `O=S(=O)(Nc1ccc2[nH]nc(-c3ccccc3)c2c1)c1ccccc1F` [Example 134, 2-Fluoro-N-(3-phenyl-1H-indazol-5-yl)-benzenesulfonamide] the same measures were 81%, 67% and 100%.
For `O=S(=O)(Nc1ccc2[nH]nc(-c3ccccc3)c2c1)c1ccc(Cl)s1` [Example 135, 5-Chloro-N-(3-phenyl-1H-indazol-5-yl)thiophene-2-sulfonamide] the same measures were 65%, 50% and 100%.
For `Cc1cccc(S(=O)(=O)Nc2ccc3[nH]nc(-c4ccccc4)c3c2)c1` [Example 138, 3-Methyl-N-(3-phenyl-1H-indazol-5-yl)-benzenesulfonamide], the inhibition at 10 µM was determined as 72% in experiment [1], 47% at human FAK and 99% at Aurora2 kinase.
For `O=S(=O)(Nc1ccc2[nH]nc(-c3ccccc3)c2c1)c1ccc(F)c(F)c1` [Example 152, 3,4-Difluoro-N-(3-phenyl-1H-indazol-5-yl)-benzenesulfonamide] the same measures were 67%, 71% and 92%.
For `N#Cc1cccc(S(=O)(=O)Nc2ccc3[nH]nc(-c4ccccc4)c3c2)c1` [Example 154, 3-Cyano-N-(3-phenyl-1H-indazol-5-yl)-benzenesulfonamide] the same measures were 75%, 54% and 95%.
The matching figures for `COc1cccc(S(=O)(=O)Nc2ccc3[nH]nc(-c4ccccc4)c3c2)c1` [Example 156, 3-Methoxy-N-(3-phenyl-1H-indazol-5-yl)-benzenesulfonamide]: 68%, 56% and 99%.
As for `O=S(=O)(Nc1ccc2[nH]nc(-c3ccccc3)c2c1)c1cc(F)cc(F)c1` [Example 158, 3,5-Difluoro-N-(3-phenyl-1H-indazol-5-yl)-benzenesulfonamide], the inhibition at 10 µM in experiment [1] turned out to be 68%; at human FAK it was 95%; at Aurora2 kinase, 100%.
